# Measured values reported in BindingDB's records for doi:10.1016/s0022-2836(03)00862-3 (Morphochem, 2003).
# Molecular target: Methionine aminopeptidase (Staphylococcus aureus (strain MW2), UniProt P0A079)
# Experiment: MetAP Inhibition Assay
# Details: pH 7.5; 22 °C
# Procedure: The MetAP reaction with Co2+ as a cofactor is coupled to a prolyl aminopeptidase (ProAP) using Met-Pro-p-nitroanilide as substrate. MetAP-catalyzed cleavage of the N-terminal methionine produces prolyl-p-nitroanilide, which is rapidly hydrolyzed by ProAP to release a chromogenic product. This allows the MetAP reaction to be continuously monitored at 405 nm on a UVVIS spectrophotometer. The initial rate was calculated from the early part of the reaction progress curve (<5 min). Activity assays were performed in triplicate using eight to 16 concentrations of substrate or inhibitor.
row,IC50,SMILES
1,0.0437 µM,"CSCC[C@H](N)c1nnc(SCc2ccccc2)[nH]1 [1,2,4-triazole derivative.]"
2,> 100 µM,"Cn1cnnc1SCc1ccccc1 [1,2,4-triazole derivative.]"
3,0.599 µM,"Nc1n[nH]c(SCc2ccccc2)n1 [1,2,4-triazole derivative.]"
